Measurements reported in patent publication US6863883B1, “Permanent wave agent composition having dyeing effect and method for dyeing hair using the same” (Henkel Lion Cosmetics Co. Ltd., priority 1998, dated 2005).

Key:
[1] = Dyeability test of second solution containing a dye on goat hair; design: key: ⊚: Deeply dyed and an original white color of the goat hair is not prominent; ◯: Dyed to a degree that an original white color of the goat hair is not prominent; Δ: Dyed, but prominent in an original white color of the goat hair; X: Only an original white color of the goat hair; details: first solution 30° C. 15 minutes, then second solution with 0.2% dye
Procedure: To approximately 2 g of goat hair, approximately 2 g of a first solution of a permanent waving composition was applied, and the hair was allowed to stand in a constant temperature bath at 30° C. for 15 minutes. Then, approximately 2 g of the same filtered second solution of a permanent waving composition as that described in Test Example 1 was applied to the hair, and the hair was shampooed and treated with a hair rinse conditioner, and adequately rinsed with water. After drying the hair, dyeability for the hair was evaluated.
(§1) Thereafter, the hair which was dyed in the dyeability test was allowed to stand for 24 hours after dyeing, then immersed into 300 ml of an aqueous solution containing 0.03/sodium polyoxyethylene (2 E.O.) alkyl (12, 13) ether sulfate at 80° C. for 10 minutes. Then, the hair was adequately rinsed with warm water, dried, and fastness was evaluated by observing dyeability for the hair after the test. The evaluation was conducted based on the following criteria: • ⊚: Deeply dyed and an original white color of the goat hair is not prominent • ◯: Dyed to a degree that an original white color of the goat hair is not prominent • Δ: Dyed, but prominent in an original white color of the goat hair • X: Only an original white color of the goat hair.

[2] = Fastness test of dyed goat hair (surfactant solution at 80° C. for 10 minutes); design: key: ⊚: Deeply dyed and an original white color of the goat hair is not prominent; ◯: Dyed to a degree that an original white color of the goat hair is not prominent; Δ: Dyed, but prominent in an original white color of the goat hair; X: Only an original white color of the goat hair; details: 24 hours after dyeing, surfactant solution 80° C. 10 minutes
Procedure: as §1

[3] = Stability with time of a second solution of a permanent waving composition containing a direct dye (storage at 45° C.); format: physicochemical; details: for pH (45° C.) Initial / pH (45° C.) 2 weeks / pH (45° C.) 4 weeks: 0.2% dye in second solution; for pH (45° C.) 2 weeks / pH (45° C.) 4 weeks: stored at 45° C.; for Ratio of dye that remains solubilized after 4 weeks at 45° C.: absorbance at maximum wavelength, initial value defined as 100%
From the text: Each of an acidic dye, tar-series pigment and cationic dye which are a direct dye was weighed out so as to be 0.2% by weight in terms of the active ingredient, and added to a second solution of a permanent waving composition formulated as shown in Table 1 to stir.
As the acidic dye. […] In the tar-series pigment, HC BLUE 2 and HC YELLOW 2 (manufactured by JAMS ROBINSON Inc.) were used. And, as the […] dye, (A): (1-methyl-1-paramethoxyphenyl)-2-(1-methane-4N-methylpyridinium)hydrazine chloride, (B): 4-dimethylaminophenylazo-2N— methyl-5N-methylimidazolium chloride and (C): 4-aminophenylazo-2N-methyl-5N-methylimidazo ium chloride (manufactured by Ciba Specialty Chemicals, Inc.) were used.
The sample was stored at 45° C., and stability of the sample with time was evaluated for solubility of the dye in the sample, pH, absorption spectra in a visible light range.
The evaluation for solubility of the dye was conducted based on the following criteria: • ◯: No change in solubility compared to that measured two weeks before; and • X: Precipitation of the dye
A pH was measured with a pH meter manufactured by HORIBA Inc. Limited. Moreover, the evaluation for the absorption spectra in the visible light range was conducted by measuring an absorbance at the maximum absorbance wavelength in the absorption spectra in the visible light range using HITACHI U-3210 (using a quartz cuvette having 10 mm optical path) and calculating a ratio of the dye that remains solubilized after 4 weeks by defining the initial measured solubilized value as 100%.

[4] = Effect of pH of cationic dye solution on dyeability (Test Example 5); design: species or system goat; details: 0.05% aqueous solution, 30 minutes
From the text: (§2) Thereafter, each 2 g of the first solution and the second solution not containing the dye was applied to the permanently waved hair under the same condition as that described above. After the treatment with the second solution, the hair was adequately washed with water, and 2 g of a 0.05/aqueous solution of the cationic dye (B) which had been adjusted to pH 9 was applied to the hair which had been permanently waved and the untreated hair, respectively, which were allowed to stand at a treatment temperature of 30° C. for a treatment period of 30 minutes. Then, the hair was shampooed and treated with a hair rinse conditioner, adequately rinsed with water and dried, and dyeability was evaluated. Dyeability was evaluated according to a brightness of JIS standard color chart. The smaller value thereof indicates higher dyeability.
A 0.05% aqueous solution of a cationic dye (C) was adjusted to pH 3, 5, 7, 9 or 11, and 4 g thereof was applied to approximately 2 g of goat hair. The, hair was allowed to stand in a constant temperature bath at 30° C. for 30 minutes. Then, the hair was shampooed and treated with a hair rinse conditioner, adequately washed with water and dried, and dyeability was evaluated according to the same manner as that described in Test Example 4.

[5] = Effect of water content (propylene glycol) on dyeability (Test Example 6); design: species or system goat; details: 0.05% solution, pH 9
From the text: as §2
0.05% aqueous solutions of a cationic dye (C), each containing 0, 10, 20, 30, 40 and 50% propylene glycol respectively, were adjusted to pH 9.4 g of each solution was applied to approximately 2 g of goat hair, and the goat hair was allowed to stand in a constant temperature bath at 30° C. for 30 minutes. Then, the hair was shampooed and treated with a hair rinse conditioner, and adequately washed with water and dyeability was evaluated according to the same manner as that described in Test Example 4.

pH (45° C.) Initial [3] | pH (45° C.) 2 weeks [3] | pH (45° C.) 4 weeks [3] | Ratio of dye that remains solubilized after 4 weeks at 45° C. [3] | Stability with time in the second solution of the permanent waving composition ([3]; summary of Table 2, 45° C.) | Compound | Dyeability [1] | Fastness [2] | Dyeability (JIS brightness) ([4]; pH 3, 30° C.) | Dyeability (JIS brightness) ([4]; pH 5, 30° C.) | Dyeability (JIS brightness) ([4]; pH 7, 30° C.) | Dyeability (JIS brightness) ([4]; pH 9, 30° C.) | Dyeability (JIS brightness) ([4]; pH 11, 30° C.) | Dyeability (JIS brightness) ([5]; propylene glycol 0 wt %) | Dyeability (JIS brightness) ([5]; propylene glycol 10 wt %) | Dyeability (JIS brightness) ([5]; propylene glycol 20 wt %) | Dyeability (JIS brightness) ([5]; propylene glycol 30 wt %) | Dyeability (JIS brightness) ([5]; propylene glycol 40 wt %) | Dyeability (JIS brightness) ([5]; propylene glycol 50 wt %)
6.43 | 6.44 | 6.15 | 0.00% |  | O=[N+]([O-])c1cc(N(CCO)CCO)ccc1NCCO [HC BLUE 2] | ◯ | X |  |  |  |  |  |  |  |  |  |  | 
6.43 | 6.42 | 6.44 | 97.6% | stable with time | O=[N+]([O-])c1ccccc1NCCO [HC YELLOW 2] | ◯ | X |  |  |  |  |  |  |  |  |  |  | 

The next lines start with the compound.

Compound | pH (45° C.) Initial [3] | pH (45° C.) 2 weeks [3] | pH (45° C.) 4 weeks [3] | Ratio of dye that remains solubilized after 4 weeks at 45° C. [3] | Stability with time in the second solution of the permanent waving composition ([3]; summary of Table 2, 45° C.) | Dyeability [1] | Fastness [2] | Dyeability (JIS brightness) ([4]; pH 3, 30° C.) | Dyeability (JIS brightness) ([4]; pH 5, 30° C.) | Dyeability (JIS brightness) ([4]; pH 7, 30° C.) | Dyeability (JIS brightness) ([4]; pH 9, 30° C.) | Dyeability (JIS brightness) ([4]; pH 11, 30° C.) | Dyeability (JIS brightness) ([5]; propylene glycol 0 wt %) | Dyeability (JIS brightness) ([5]; propylene glycol 10 wt %) | Dyeability (JIS brightness) ([5]; propylene glycol 20 wt %) | Dyeability (JIS brightness) ([5]; propylene glycol 30 wt %) | Dyeability (JIS brightness) ([5]; propylene glycol 40 wt %) | Dyeability (JIS brightness) ([5]; propylene glycol 50 wt %)
O=S(=O)([O-])c1ccc(N=Nc2c(O)ccc3ccccc23)cc1.[Na+] [ORANGE 205] | 6.44 | 6.43 | 6.45 | 98.7% |  | Δ | X |  |  |  |  |  |  |  |  |  |  | 
COc1ccc(N(C)N=Cc2cc[n+](C)cc2)cc1 [cationic dye (A), (1-methyl-1-paramethoxyphenyl)-2-(1-methane-4N-methylpyridinium)hydrazine chloride] | 6.43 | 6.42 | 6.42 | 99.6% |  | ⊚ | ⊚ |  |  |  |  |  |  |  |  |  |  | 
Cc1ccc(Nc2ccc(O)c3c2C(=O)c2ccccc2C3=O)c(S(=O)(=O)[O-])c1.[Na+] [PURPLE 401] | 6.54 | 6.52 | 6.54 | 92.2% |  | X | X |  |  |  |  |  |  |  |  |  |  | 
Nc1c(N=Nc2ccc([N+](=O)[O-])cc2)c(S(=O)(=O)[O-])cc2cc(S(=O)(=O)[O-])c(N=Nc3ccccc3)c(O)c12.[Na+].[Na+] [BLACK 401] | 6.43 | 6.44 | 6.45 |  |  | ◯ | X |  |  |  |  |  |  |  |  |  |  | 
Cn1cc[n+](C)c1N=Nc1ccc(N)cc1 [cationic dye (C), 4-aminophenylazo-2N-methyl-5N-methylimidazo ium chloride] | 6.41 | 6.40 | 6.41 | 102.0% |  | ⊚ | ⊚ | 6.5 | 6.0 | 5.7 | 5.3 | 5.0 | 6.5 | 6.8 | 7.0 | 7.7 | 8.5 | 9.0
